Among the data in ChEMBL document CHEMBL1759855, “Synthesis and innate immunosuppressive effect of 1,2-cyclopentanediol derivatives” (Eur J Med Chem, 2011) are EC50 and Activity values, retold here.

pEC50: −log10 of the molar value.

The nature of data set [1]: Cytotoxicity against Drosophila S2 cells by MTT assay. It is filed as cell-based. The following applies: Drosophila melanogaster. For orientation: Tetrazolium dyes change colour on reduction, which living cells bring about.
For a further data set, the system named is Drosophila. The data set is described as follows: Ex vivo immunosuppressive activity in Drosophila larvae assessed as inhibition of IMD signaling pathway by beta-galactosidase reporter gene assay. It is filed as functional, organism-based. A general note: Reporter assays use an easily measured gene product as a stand-in for the process of interest.
In data set [2] the test system is HUVEC. The data set is described as follows: Immunosuppressive activity in human HUVEC assessed as inhibition of TNF-alpha-induced IL8 production at 50 ug/mL after 12 hrs by ELISA relative to control. Type of data set: functional. On the set-up: scale not given: the % may be the effect or the level left. A general note: ELISA stands for enzyme-linked immunosorbent assay.

Data set [3] has as its system HUVEC. Nature of the data set: Cytotoxicity against human HUVEC assessed as cell viability at 50 ug/ml. It is filed as cell-based.

As usually defined, the pEC50 is the negative decadic logarithm of the EC50, by convention in mol/L. On to `C/C=C/[C@H]1C[C@@H](O)[C@@H](O)C1`, for which the pEC50 in data set [1] was less than 3.46; in the data set with Drosophila, 4.00.

In the case of `C/C=C/[C@@H]1C[C@@H](O)[C@@H](O)C1`, the values for the negative-log EC50 (pEC50) (in data set [1]; with Drosophila) were less than 3.46 and 3.46, respectively.

Turning to `CCC[C@H]1C[C@@H](O)[C@@H](O)C1`, the pEC50 in data set [1] was less than 3.46; with Drosophila it was 4.00.

`CCCCCC[C@H]1C[C@@H](O)[C@@H](O)C1`: the pEC50 (in data set [1]; with Drosophila) was 3.96 in each case.

Regarding `CCOC(=O)/C=C/[C@H]1C[C@@H](O)[C@@H](O)C1`, the pEC50 in data set [1] was less than 3.46; in the data set on Drosophila it was 4.00.

Consider `COC(=O)/C=C/[C@H]1C[C@@H](O)[C@@H](O)C1`, for which the pEC50 (in data set [1]; with Drosophila) was less than 3.46 throughout.

For the compound `CCCCCCOC(=O)/C=C/[C@H]1C[C@@H](O)[C@@H](O)C1`, the negative-log EC50 (pEC50) in data set [1] was less than 3.46; in the data set with Drosophila, 3.82.

With `O=C(/C=C/[C@H]1C[C@@H](O)[C@@H](O)C1)Oc1ccccc1`, the figures for the pEC50 (in data set [1]; in the data set with Drosophila) were less than 3.70 and 4.00, respectively.

Regarding `O=C(O)/C=C/[C@H]1C[C@@H](O)[C@@H](O)C1`, the pEC50 is less than 3.46 in data set [1] and 3.96 with Drosophila.

In the case of `CN(C)C(=O)/C=C/[C@H]1C[C@@H](O)[C@@H](O)C1`, the pEC50 in data set [1] was less than 3.60; in the data set with Drosophila, 3.92.

With `O=C(/C=C/[C@H]1C[C@@H](O)[C@@H](O)C1)Nc1ccccc1`, the Activity with HUVEC [2] is reported as 70%; with HUVEC [3] it was “Non-toxic”. In addition, the pEC50 in data set [1] was less than 3.70; in the data set with Drosophila it was 5.35.

Take `NC(=O)/C=C/[C@H]1C[C@@H](O)[C@@H](O)C1`: the values for the pEC50 (in data set [1]; with Drosophila) were less than 3.60 and 4.72, respectively.

For `CNC(=O)/C=C/[C@H]1C[C@@H](O)[C@@H](O)C1`, the values for the Activity with HUVEC [2] and in the data set with HUVEC [3] were 70% and “Non-toxic”, respectively. Moreover, the figures for the pEC50 (in data set [1]; in the data set on Drosophila) were less than 3.60 and 5.27, respectively.

Take `CCNC(=O)/C=C/[C@H]1C[C@@H](O)[C@@H](O)C1`: the negative-log EC50 (pEC50) in data set [1] was less than 3.60; in the data set on Drosophila, 3.60.

`CCCCNC(=O)/C=C/[C@H]1C[C@@H](O)[C@@H](O)C1`: the pEC50 (in data set [1]; in the data set with Drosophila) was less than 3.60 throughout.

Take `O=C(/C=C/[C@H]1C[C@@H](O)[C@@H](O)C1)NC1CC1`: the negative-log EC50 (pEC50) in data set [1] was less than 3.60; in the data set on Drosophila, 3.62.

For the compound `O=C(/C=C/[C@H]1C[C@@H](O)[C@@H](O)C1)NO`, the pEC50 is less than 3.60 in data set [1] and 4.89 in the data set with Drosophila.

With `O=C(/C=C/[C@H]1C[C@@H](O)[C@@H](O)C1)N1CCCCC1`, the negative-log EC50 (pEC50) in data set [1] is less than 3.60; in the data set with Drosophila, 3.74.

`O=C(/C=C/[C@H]1C[C@@H](O)[C@@H](O)C1)Nc1ccc(Cl)cc1`: the pEC50 (in data set [1]; in the data set with Drosophila) was less than 3.74 each time.

For the compound `O=C(/C=C/[C@H]1C[C@@H](O)[C@@H](O)C1)Nc1ccc(Cl)c(Cl)c1`, the values for the pEC50 (in data set [1]; in the data set on Drosophila) were less than 3.80 and 4.25, respectively.

Turning to `O=C(/C=C/[C@H]1C[C@@H](O)[C@@H](O)C1)Nc1ccc(F)cc1`, the pEC50 (in data set [1]; with Drosophila) was less than 3.74 each time.

Regarding `O=C(/C=C/[C@H]1C[C@@H](O)[C@@H](O)C1)Nc1ccc(C(F)(F)F)cc1`, the pEC50 (in data set [1]; in the data set on Drosophila) was less than 3.80 each time.

Take `Cc1ccc(NC(=O)/C=C/[C@H]2C[C@@H](O)[C@@H](O)C2)cc1`: the pEC50 in data set [1] is less than 3.72; with Drosophila, 3.72.

Consider `COc1ccc(NC(=O)/C=C/[C@H]2C[C@@H](O)[C@@H](O)C2)cc1`, for which the negative logarithm of the EC50 (pEC50) in data set [1] is less than 3.74; in the data set with Drosophila, 5.51. Moreover, the Activity entry in the data set with HUVEC [3] is given as “Toxic”.

In the case of `CC(C)(C)c1ccc(NC(=O)/C=C/[C@H]2C[C@@H](O)[C@@H](O)C2)cc1`, the pEC50 in data set [1] is less than 3.74; with Drosophila, 5.36. Besides, the Activity entry in the data set with HUVEC [3] is reported as “Toxic”.

On to `CC(=O)c1ccc(NC(=O)/C=C/[C@H]2C[C@@H](O)[C@@H](O)C2)cc1`, for which the pEC50 (in data set [1]; in the data set with Drosophila) was less than 3.74 throughout.

For the compound `O=C(/C=C/[C@H]1C[C@@H](O)[C@@H](O)C1)Nc1ccc([N+](=O)[O-])cc1`, the negative logarithm of the EC50 (pEC50) (in data set [1]; with Drosophila) was less than 3.77 throughout.

On to `CN(C)c1ccc(NC(=O)/C=C/[C@H]2C[C@@H](O)[C@@H](O)C2)cc1`, for which the pEC50 in data set [1] was less than 3.77; with Drosophila, 4.72.

Take `O=C(/C=C/[C@H]1C[C@@H](O)[C@@H](O)C1)Nc1ccncc1`: the pEC50 in data set [1] was less than 3.70; in the data set on Drosophila, less than 4.70.

As for `CNC(=O)/C=C/C(CCO)CCO`, the pEC50 (in data set [1]; with Drosophila) was less than 3.60 in each case.

With `CNC(=O)CC[C@H]1C[C@@H](O)[C@@H](O)C1`, the pEC50 was less than 3.60 in data set [1] and 4.82 in the data set with Drosophila.

Turning to `CNC(=O)C[C@H]1C[C@@H](O)[C@@H](O)C1`, the pEC50 is less than 3.60 in data set [1] and 4.26 in the data set on Drosophila.

In the case of `CNC(=O)CCC[C@H]1C[C@@H](O)[C@@H](O)C1`, the Activity is 70% in the data set on HUVEC [2] and “Non-toxic” in the data set on HUVEC [3]. Moreover, the pEC50 in data set [1] was less than 3.60; in the data set on Drosophila it was 5.08.

As for `CNC(=O)CCCC[C@H]1C[C@@H](O)[C@@H](O)C1`, the pEC50 (in data set [1]; in the data set with Drosophila) was less than 3.60 each time.

Take `CNS(=O)(=O)/C=C/[C@H]1C[C@@H](O)[C@@H](O)C1`: the Activity in the data set on HUVEC [2] was 70%; with HUVEC [3], “Non-toxic”. Also, the pEC50 in data set [1] is less than 3.60; with Drosophila, 5.40.
